Toxic doses and inconclusive results are not listed. How the source made its calls: active means survival T/C of 150% or more; inactive means T/C below 125% in these data.
Tests used:
[1] = system: BDF1 mice, P388 leukemia ip; test: NCI In Vivo Anticancer Drug Screen. Data for tumor model P388 Leukemia (intraperitoneal) in B6D2F1 (BDF1) mice; conditions: endpoint: mean survival time, schedule: Q01DX009 (ip), vehicle: water, higher = longer survival
Method in brief: (§1)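 Compound-treated tumour-bearing mice were compared with vehicle-treated controls. Survival was recorded, and the value is the treated-group measurement divided by the control-group measurement (T/C).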

[2] = system: BDF1 mice, P388 leukemia ip, median survival T/C; test: as above; conditions: endpoint: median survival time, schedule: Q01DX009 (ip), vehicle: saline + alcohol, higher = longer survival
Method in brief: as §1

Measured: T/C

COc1cc2cnccc2cc1OCc1ccccc1
inactive: [1]; dose: 6.25 mg/kg/injection 95 % of control | [1]; dose: 12.5 mg/kg/injection 100 % of control | [1]; dose: 25.0 mg/kg/injection 106 % of control | [1]; dose: 50.0 mg/kg/injection 108 % of control | [1]; dose: 100.0 mg/kg/injection 90 % of control | [1]; dose: 200.0 mg/kg/injection 100 % of control

CC(=O)OC1CCC2(C)C(CC(=O)C(C)C2(O)CCc2ccoc2)C1(C)C (centres undefined)
inactive: [2]; dose: 25.0 mg/kg/injection 91 % of control | [2]; dose: 50.0 mg/kg/injection 112 % of control | [2]; dose: 100.0 mg/kg/injection 112 % of control

Reference: PubChem BioAssay AID328 (DTP/NCI, 2004)
